According to patent US5731323A, “Quinuclidine derivatives as squalene synthase inhibitors” (Zeneca Limited, priority 1992, dated 1998):

Experiments:
[1] = tested on: de novo hepatic cholesterol synthesis; assay: Acute rat cholesterol synthesis assay (de novo hepatic cholesterol synthesis from exogenously administered 14C-acetate); type: in vivo; details: female rats, dose and route not stated
Protocol: (b) Acute rat cholesterol synthesis assay.
This is an acute in vivo test in the rat to measure de novo hepatic cholesterol synthesis from exogenously administered ^14 C-acetate.
Female rats (35-55 g) are housed in reverse lighting conditions (red light from 0200 h-1400 h) for a period of about 2 weeks prior to test. Animals are allowed free access to chow and drinking water throughout this period. At test, animals should weigh 125-150 g.
Test compounds may be administered by oral gavage, dissolved or suspended in 0.5% polysorbate, or by ip or iv dosing. Control animals receive vehicle alone. After 1 hour the rats are injected ip with 25 μCi [2-^14 C]-acetate (NEN DUPONT. specific activity, 45-60 mCi/mmol NEC-085H, or AMERSHAM specific activity, 50-60 mCi/mmol CFA 14) in a volume of 0.25 ml saline (100 μCi/ml). After a further hour, rats are terminally anaesthetised with halothane and a blood sample obtained from the abdominal vena cava.
1 ml of plasma is lyophilised and then saponified in 2 ml ethanolic KOH (1 part 33% KOH, 9 parts ethanol) at 75° C. for 2 hours. After addition of an equal quantity of water, non-saponifiable lipids are extracted with two 5 ml volumes of hexane. The hexane extracts are evaporated to dryness and the residues dissolved in ethanol to determine cholesterol specific radioactivity. ED50 values can be determined in the standard way.

Squalene synthase = assay: Inhibition of squalene synthase (squalene formation from tritiated farnesyl pyrophosphate, rat liver microsomal protein); type: biochemical; details: 2.5 μM, substrate 20 μM, 15 minutes, 37° C.
Protocol: (a) Inhibition of Squalene synthase
In this test, the ability of a compound to prevent the formation of squalene from a radioactive substrate (tritiated farnesyl pyrophosphate) is assessed.
The test compound is incubated at a concentration of 25 micromolar in 200 μl of a buffered solution containing potassium phosphate (50 mM), MgCl2 (4.95 mM), KF (9.9 mM), NADPH (0.9 mM) and rat liver microsomal protein (20 μg). Rat liver microsomes are prepared by the method described in published European Patent Application No. 324,421 and stored in liquid nitrogen prior to assay. Assay vials are kept at 37° C. throughout the incubation.
The reaction is started with the addition of the substrate (1-[^3 H]-farnesyl pyrophosphate), final concentration 20 μM, and stopped after 15 minutes reaction time with the addition of 50 μl of 4% KOH. The reaction products are separated from unreacted substrate after application to a C-18 octadecyl 1 ccBond column (Analytichem Int product No. 617101). An aqueous fraction is eluted with 250 μl of 0.1M KOH. Squalene is then eluted with 1.0 ml 10% ethylacetate in hexane and radioactivity determined. The difference in radioactivity in the presence and absence of the test compound is used to determine the level of inhibition. […] The IC50 can then be determined from a plot of percentage inhibition against concentration of test compound.

## CCCCOc1ccc(C#CC2(O)CN3CCC2CC3)cn1 (centres unmarked) [Example 1, 3-[2-(6-butoxy-3-pyridyl)ethynyl]quinuclidin-3-ol]
[1]
  decrease in the rate of cholesterol biosynthesis: 71%
Squalene synthase
  inhibition (squalene synthase): about 99%
